Assay results reported in US9188584B2, “Capture agents and related compositions, methods and systems” (CALIFORNIA INSTITUTE OF TECHNOLOGY, priority 2008, dated 2015).
Several values for one entry are separate records, joined by “and”; a condition that tells them apart may be missing. Equal values may be shown once.

Legend:
bCAII = target: T1, bCAII (Bos taurus, UniProt P00921); assay: KD determination by surface plasmon resonance (SPR), immobilized bCAII; design: species or system bovine; details: binding affinity to bCAII by SPR, 1:1 binding fit
T1 construct: The bCAII (C2522), from bovine erythrocytes, lyophilized powder; purchased Sigma-Aldrich C2522; host or cells: bovine erythrocytes
Text: KD determination by surface plasmon resonance (SPR).

hCAII = hCAII (Homo sapiens, UniProt P00918); assay: biochemical
Method: KD determination by surface plasmon resonance (SPR). […] One flow cell of the biosensor surface (BIACORE CM5) was immobilized with bCAII following standard procedures using 0.25 mg/mL bCAII prepared in 10 mM sodium acetate (pH 5.0) buffer and a 1:1 solution of 0.1 mM NHS and 0.4 mM EDC (Papalia, G. A. et al., 2006). Similarly, a second flow cell was immobilized with hCAII following standard procedures using 0.25 mg/mL hCAII prepared in 10 mM sodium acetate (pH 5.5) buffer (Svedhem, S. et al., 2001). Immobilization levels of ˜4000 RU were achieved using a flow rate of 100 μL/min over 420 s. The remaining two flow cells were left underivatized, to correct for changes in bulk refractive index and to assess nonspecific binding. The running buffer was prepared to contain 10 mM HEPES+150 mM NaCl+0.05% Tween20+3% DMSO, and this buffer was used for all experiments. Prior to the peptide analyte experiment, 8 buffer-alone cycles were completed to establish baseline stabilization. Biligand samples were injected in a concentration series (5 μM to 2 nM) at 100 μL/min flow rate for 120-180 s across the four flow cells. Following background subtraction, the analyte response data was fitted for 1:1 binding affinity using the BiaEvaluation software. […]

b(h)CAII = assay: Dot blot selectivity/sensitivity assay in porcine serum; type: binding; details: 0.1% serum
Method: Dot blots are a common method for detecting proteins. […] For a dot blot, the solution containing the protein of interest is simply dotted onto an absorbent membrane material (typically nitrocellulose). The capture agent (typically an antibody) is labeled with biotin molecule, and applied to the same spot. The spot is rinsed, and then horseradish peroxidase (HRP)-labeled streptavidin is added, binding to the biotin that is bound to the protein. Optical methods are typically utilized to detect this binding. For these tests, Biotin-PEG-NovaTag resin (0.48 mmol/g; Novabiochem) was utilized for bulk synthesis of C-terminal biotin-labeled multi-ligands. After resin cleavage, the crude biotinylated multi-ligand was precipitated with ether and then purified to >98% by C18 reversed phase HPLC. For a dot blot assay, the procedure was as follows: b(h)CAII antigens were prepared as 1 mg/mL stocks in PBS (pH 7.4). A dilution series of antigen was applied to a nitrocellulose membrane, typically ranging from 2 μg to 0.5 ng per spot. […] The membrane was then washed with TBS. […] After washing with TBS for 1 h, 1:3000 Streptavidin-HRP (Abcam, Cambridge, Mass.) prepared in 0.5% milk/TBS was added to the membrane and incubated for 1 h. […]

T1 sequence (P00921 whole entry): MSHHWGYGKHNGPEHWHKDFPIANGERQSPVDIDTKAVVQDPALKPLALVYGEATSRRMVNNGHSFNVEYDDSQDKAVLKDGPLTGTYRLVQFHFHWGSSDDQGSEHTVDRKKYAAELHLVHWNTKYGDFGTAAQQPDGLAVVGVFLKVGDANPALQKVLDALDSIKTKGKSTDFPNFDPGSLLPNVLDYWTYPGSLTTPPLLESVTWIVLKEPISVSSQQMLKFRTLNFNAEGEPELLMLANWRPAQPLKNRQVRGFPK

| Molecule | Kd (bCAII) | Kd (hCAII) [µM] | reduction of dot blot sensitivity relative to triligand (b(h)CAII) [fold] |
| --- | --- | --- | --- |
| CC[C@@H](C)[C@@H](NC(=O)[C@@H](CC(C)C)NC(=O)[C@@H](CC(N)=O)NC(=O)C(N)CCCCn1cc(C[C@@H](NC(C)=O)C(=O)N[C@H](CCCCN)C(=O)N[C@H](Cc2c[nH]c3ccccc23)C(=O)N[C@H](CC(C)C)C(=O)N[C@H](Cc2c[nH]c3ccccc23)C(=O)NCC(=O)N[C@H](CC(C)C)C(=O)N[C@H](Cc2cn(CCCCC(NC(C)=O)C(=O)N[C@H](CCCCN)C(=O)N[C@H](Cc3ccccc3)C(=O)N[C@H](Cc3c[nH]c4ccccc34)C(=O)N[C@H](CC(C)C)C(=O)N[C@H](CCCCN)C(=O)N[C@H](CC(C)C)C(=O)O)nn2)C(=O)N2CCCCC2)nn1)C(=O)N[C@@H](C(=O)N[C@H](Cc1ccccc1)C(=O)N[C@H](CCCNC(=N)N)C(N)=O)C(C)C (stereo partly drawn) [rfviln-Tz2-kwlwGl-Tz1-kfwlkl] | 0.06 µM and 0.064 µM | 0.045 | – |
| (D-Pra)-kwlwGl-Tz1-kfwlkl | – | – | > 10 |
